ChEMBL document CHEMBL1201862, “PubChem BioAssay data set” (2004)
Values belong to the compound of their own block, whether it stands above or below them. Calls of active or inactive are those of the source.

Assays:
Cytochrome P450 2C9 = Cytochrome P450 2C9 (Homo sapiens, UniProt P11712)
Cytochrome P450 1A2 = target: T1, Cytochrome P450 1A2 (Homo sapiens, UniProt P05177);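 note: PubChem cytochrome P450 panel assay, CYP1A2 panel member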
T1 sequence (P05177 whole entry): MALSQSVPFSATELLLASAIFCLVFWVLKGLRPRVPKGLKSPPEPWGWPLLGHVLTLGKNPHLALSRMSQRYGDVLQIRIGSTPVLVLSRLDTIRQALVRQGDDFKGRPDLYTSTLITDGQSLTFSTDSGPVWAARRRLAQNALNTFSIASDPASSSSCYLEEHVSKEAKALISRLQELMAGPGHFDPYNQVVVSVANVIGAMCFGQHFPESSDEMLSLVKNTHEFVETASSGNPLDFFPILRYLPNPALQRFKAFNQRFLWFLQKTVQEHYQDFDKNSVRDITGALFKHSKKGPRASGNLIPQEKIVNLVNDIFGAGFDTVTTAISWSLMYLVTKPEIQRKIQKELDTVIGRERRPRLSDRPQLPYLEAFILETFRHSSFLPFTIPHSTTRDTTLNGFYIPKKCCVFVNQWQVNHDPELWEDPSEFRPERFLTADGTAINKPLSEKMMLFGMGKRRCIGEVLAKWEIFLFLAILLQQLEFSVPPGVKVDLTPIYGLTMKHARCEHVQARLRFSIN

Cytochrome P450 3A4 = Cytochrome P450 3A4 (Homo sapiens, UniProt P08684);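 note: CYP3A4 tested as one member of a cytochrome P450 panel screen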
[1] = inhibitors of intracellular T. cruzi replication, confirmation, NIH3T3 host cells, beta-gal luminescence (AID 2044); format: functional, cell-based;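 note: intracellular parasites grown in NIH/3T3 mouse fibroblasts as host cells; luminescent beta-galactosidase reporter signal from transgenic T. cruzi replicating inside host cells; inhibitors lower the luminescence signal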
[2] = cytotoxicity toward NIH3T3 fibroblasts, dose response, counter-screen, cell-based, ATP luminescence, mouse fibroblasts (AID 2010); format: functional;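 note: cells exposed to compound for about 90 hours before reading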
[3] = system: Streptococcus sp. 'group A'; assay: growth inhibition of control SK(-) GAS strain, dose response, counter-screen for streptokinase expression inhibitor project, luminescence, kanamycin, BacTiterGlo, confirmation (AID 1900); format: functional, organism-based
Streptococcus = assay: Group A Streptococcus viability loss, dose response, counter-screen for streptokinase expression inhibitor project, luminescence, BacTiterGlo (AID 1915); format: functional, organism-based;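 note: potency for reduction of bacterial viability or growth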
[4] = inhibitors of firefly luciferase expression or activity, dose response, H4 neuroglioma cells, luminescence (AID 1990); format: functional, cell-based

Chain of Cytochrome P450 2C9 (P11712 whole entry): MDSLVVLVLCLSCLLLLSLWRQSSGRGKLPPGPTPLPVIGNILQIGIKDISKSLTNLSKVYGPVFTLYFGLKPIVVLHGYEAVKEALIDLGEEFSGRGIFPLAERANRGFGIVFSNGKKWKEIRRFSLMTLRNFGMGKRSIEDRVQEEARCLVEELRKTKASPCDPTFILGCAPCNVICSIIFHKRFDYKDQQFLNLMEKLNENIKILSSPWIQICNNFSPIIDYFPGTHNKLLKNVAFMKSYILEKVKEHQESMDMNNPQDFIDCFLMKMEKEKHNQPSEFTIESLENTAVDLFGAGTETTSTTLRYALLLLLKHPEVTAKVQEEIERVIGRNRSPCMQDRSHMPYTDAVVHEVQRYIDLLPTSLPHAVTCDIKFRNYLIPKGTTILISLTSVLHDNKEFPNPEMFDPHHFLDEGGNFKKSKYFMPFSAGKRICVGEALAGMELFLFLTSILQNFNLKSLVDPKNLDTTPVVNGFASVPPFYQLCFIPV
Chain of Cytochrome P450 3A4 (P08684 whole entry): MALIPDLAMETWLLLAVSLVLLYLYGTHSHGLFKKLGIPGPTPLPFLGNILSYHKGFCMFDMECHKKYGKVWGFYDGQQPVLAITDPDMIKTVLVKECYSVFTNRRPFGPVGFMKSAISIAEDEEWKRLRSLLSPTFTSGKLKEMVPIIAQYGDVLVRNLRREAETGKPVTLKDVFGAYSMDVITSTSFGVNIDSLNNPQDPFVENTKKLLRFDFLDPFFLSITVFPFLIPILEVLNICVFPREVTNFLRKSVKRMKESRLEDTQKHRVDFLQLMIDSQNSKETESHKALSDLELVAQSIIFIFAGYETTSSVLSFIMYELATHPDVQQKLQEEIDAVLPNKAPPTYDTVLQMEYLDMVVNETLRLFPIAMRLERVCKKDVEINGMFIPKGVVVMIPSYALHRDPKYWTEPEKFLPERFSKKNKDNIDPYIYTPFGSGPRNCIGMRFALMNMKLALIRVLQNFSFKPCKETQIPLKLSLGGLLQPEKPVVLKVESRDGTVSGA

AC50 (Cytochrome P450 2C9): 2.82 µM (inconclusive)
SMILES: CCc1sc(-c2c(C#N)c(N)nc3c2CCCCCC3)cc1[N+](=O)[O-]

AC50 (Cytochrome P450 1A2): 14.1 µM (inconclusive)
AC50 (Cytochrome P450 3A4): 25.1 µM (inconclusive)
AC50 (Cytochrome P450 2C9): 1.58 µM (inconclusive)
SMILES: CC1CC(C)CN(C/C=C/c2ccccc2[N+](=O)[O-])C1 (configuration not stated)

SMILES: COc1ccccc1CN1CCCC(C(=O)c2ccccc2SC)C1 (configuration not stated)
EC50 [1]: 1.6 µM (active)
EC50 [2]: > 60 µM (not active)

SMILES: COc1ccc(-c2cc3ncnc(Cl)c3s2)cc1
EC50 [3]: 9.73 µM (active)
EC50 (Streptococcus): 26 µM (active)

AC50 (Cytochrome P450 1A2): 6.31 µM (inconclusive)
SMILES: CC(C)(CO)N1CCN(C(S)=Nc2ccccc2)CC1

AC50 (Cytochrome P450 2C9): 6.31 µM (inconclusive)
SMILES: O=[N+]([O-])c1ccc([C@@H](Nc2ccccc2)c2ccc3cccnc3c2O)cc1

SMILES: Cc1ccc(C)c(N2CCN(C(=O)c3ccc(Cn4c(=S)[nH]c5ccc(N6CCOCC6)cc5c4=O)cc3)CC2)c1
EC50 [1]: 0.458 µM (active)
EC50 [2]: > 60 µM (not active)

SMILES: COc1ccccc1C(=O)NNC(=O)C(=O)Nc1ccc(C)c(Cl)c1
EC50 [3]: 1.73 µM (active)
EC50 (Streptococcus): 3.87 µM (active)

AC50 (Cytochrome P450 1A2): 12.6 µM (inconclusive)
SMILES: CCc1ccc(OCC(=O)OC2CCS(=O)(=O)C2)cc1 (configuration not stated)

SMILES: Cc1cccc(N(CC(=O)NC2CCCC2)C(=O)c2cc3cc4cccc(C)c4nc3s2)c1C
EC50 [1]: 1.6 µM (active)
EC50 [2]: > 60 µM (not active)

AC50 (Cytochrome P450 2C9): 39.8 µM (inconclusive)
SMILES: Cn1c(=O)c(-c2cccs2)nc2cncnc21

AC50 (Cytochrome P450 1A2): 31.6 µM (inconclusive)
SMILES: CCCCCCCC(=O)O[C@H](CC(=O)O)C[N+](C)(C)C [OCTANOYLCARNITINE]

AC50 (Cytochrome P450 3A4): 8.91 µM (inconclusive)
AC50 (Cytochrome P450 2C9): 7.94 µM (inconclusive)
SMILES: COc1ccc2c(c1)C(=O)N(Cc1ccco1)C(=O)/C2=C\Nc1c(C)n(C)n(-c2ccccc2)c1=O

AC50 (Cytochrome P450 2C9): 0.794 µM (inconclusive)
SMILES: COc1ccc(OC)c(NC(=O)c2cc3n(n2)C(C(F)(F)F)CC(c2ccc4c(c2)OCO4)N3)c1 (configuration not stated)

AC50 (Cytochrome P450 3A4): 31.6 µM (inconclusive)
SMILES: OCCNCCCOc1cccc(Cl)c1Cl

AC50 (Cytochrome P450 3A4): 2.24 µM (inconclusive)
SMILES: N#C/C(=C\c1cc([N+](=O)[O-])c(N2CCCCC2)cc1N1CCCCC1)c1nn(-c2ccccc2)c(N)c1C#N

AC50 (Cytochrome P450 3A4): 39.8 µM (inconclusive)
SMILES: CCOC(=O)CNS(=O)(=O)c1cc(-c2nn(C)c(=O)c3ccccc23)ccc1C

AC50 (Cytochrome P450 3A4): 28.2 µM (inconclusive)
AC50 (Cytochrome P450 2C9): 7.94 µM (inconclusive)
SMILES: CC(=O)c1cccc(NC(=O)CSCc2ccccc2)c1

SMILES: FC(F)(F)c1nc2ccc(SSc3ccc4nc(C(F)(F)F)[nH]c4c3)cc2[nH]1
AC50 (Cytochrome P450 1A2): 0.501 µM (inconclusive)
AC50 (Cytochrome P450 2C9): 7.94 µM (inconclusive)

SMILES: O=C(Cn1cnc2cc([N+](=O)[O-])ccc2c1=O)Nc1ccccc1-c1ccccc1
EC50 [1]: 0.629 µM (active)
EC50 [2]: > 30 µM (not active)

AC50 (Cytochrome P450 2C9): 0.251 µM (inconclusive)
SMILES: CN(C)c1ncc2nc(-c3ccc(F)cc3)c(=O)n(C3CC3)c2n1

SMILES: Clc1ccc(OCCCCCN2CCCC2)c(Br)c1
EC50 [1]: 0.231 µM (active)
EC50 [2]: 10.9 µM (active)

SMILES: Cc1ccc(C(=O)N/N=C/c2cn(Cc3ccccc3)c3ccccc23)cn1
EC50 [4]: 7.88 µM (active)

AC50 (Cytochrome P450 1A2): 25.1 µM (inconclusive)
AC50 (Cytochrome P450 2C9): 22.4 µM (inconclusive)
SMILES: COc1cc2c(C(=O)N3CCN(C)CC3)c(C)n(-c3ccccc3)c2cc1Br

AC50 (Cytochrome P450 1A2): 39.8 µM (inconclusive)
AC50 (Cytochrome P450 3A4): 0.0316 µM (inconclusive)
SMILES: N[C@H](C(=O)O)[C@H](O)C(=O)O

SMILES: CCc1ccc(OCCNC(=O)c2ccccc2SCc2ccc(F)cc2)cc1
EC50 [1]: 2.67 µM (active)
EC50 [2]: > 60 µM (not active)

AC50 (Cytochrome P450 1A2): 10 µM (inconclusive)
AC50 (Cytochrome P450 3A4): 22.4 µM (inconclusive)
AC50 (Cytochrome P450 2C9): 12.6 µM (inconclusive)
SMILES: Cc1nnc(C)n1/N=C/c1ccc(-c2ccccc2)cc1

SMILES: Cc1cccc(NC(=O)c2cccc(Cn3cc(Br)c([N+](=O)[O-])n3)c2)c1C
EC50 [1]: 0.834 µM (active)
EC50 [2]: 39 µM (active)

AC50 (Cytochrome P450 1A2): 25.1 µM (inconclusive)
AC50 (Cytochrome P450 2C9): 20 µM (inconclusive)
SMILES: CC(=O)Nc1cccc(NC(=O)C2CCCN2C(=O)Nc2ccccc2C)c1 (configuration not stated)

AC50 (Cytochrome P450 1A2): 28.2 µM (inconclusive)
SMILES: C=CCNc1cnn(-c2ccc(C)cc2)c(=O)c1Cl

AC50 (Cytochrome P450 1A2): 8.91 µM (inconclusive)
SMILES: O=C(CCC(=O)OCc1ccc(C(=O)Oc2ccccc2)cc1)Nc1cccc2ccccc12

AC50 (Cytochrome P450 2C9): 6.31 µM (inconclusive)
SMILES: CCCNC(=O)OC[C@@H]1O[C@H](CCO/N=C2\c3cc(OC)ccc3O[C@H](c3cccc(OC)c3)[C@H]2O)C=C[C@@H]1Oc1ccc(OC)cc1

AC50 (Cytochrome P450 1A2): 15.8 µM (inconclusive)
AC50 (Cytochrome P450 3A4): 11.2 µM (inconclusive)
SMILES: O=C(CSCc1ccccc1Cl)NNC(=O)c1ccccc1

AC50 (Cytochrome P450 1A2): 2 µM (inconclusive)
SMILES: COc1cccc(Nc2ncc3nc(-c4cccs4)c(=O)n(Cc4cccs4)c3n2)c1

SMILES: Cc1cccc(Nc2nc(-c3ccncc3)cs2)c1
EC50 [1]: 0.154 µM (active)
EC50 [2]: 6.1 µM (active)

AC50 (Cytochrome P450 2C9): 20 µM (inconclusive)
SMILES: CCNCc1cc(OCC)c(OCC(=O)NCCc2ccccc2)cc1Cl

AC50 (Cytochrome P450 3A4): 3.98 µM (inconclusive)
SMILES: C=CC[C@@H]1C=C[C@@H](O/N=C\C[C@@H]2C=C[C@H](OC(C)=O)[C@H](COC(C)=O)O2)[C@@H](CO)O1

SMILES: CN1CCN(/N=C/c2ccc(-c3ccc([N+](=O)[O-])cc3)o2)CC1
EC50 [1]: 1.11 µM (active)
EC50 [2]: > 60 µM (not active)

SMILES: O=C(Nc1nnc(C2=COCCO2)o1)c1ccc(Br)cc1
EC50 [3]: 1.9 µM (active)
EC50 (Streptococcus): 5.47 µM (active)

SMILES: Cc1ccc(-c2cc(C(F)F)n3ncc(C(=O)N4CCN(c5ccccn5)CC4)c3n2)cc1
EC50 [1]: 0.5 µM (active)
EC50 [2]: > 60 µM (not active)

AC50 (Cytochrome P450 1A2): 14.1 µM (inconclusive)
AC50 (Cytochrome P450 3A4): 0.708 µM (inconclusive)
SMILES: CCc1nnc2sc(-c3ccc(NC(=O)c4ccco4)cc3)nn12

AC50 (Cytochrome P450 3A4): 3.16 µM (inconclusive)
AC50 (Cytochrome P450 2C9): 6.31 µM (inconclusive)
SMILES: COc1ccc(-c2csc3c2[N+]2=CCC=C2C3[O-])cc1 (configuration not stated)

AC50 (Cytochrome P450 3A4): 20 µM (inconclusive)
AC50 (Cytochrome P450 2C9): 11.2 µM (inconclusive)
SMILES: Cc1nc(SC2CC(=O)N(c3ccc([N+](=O)[O-])cc3)C2=O)nc2c1CCCC2 (configuration not stated)

AC50 (Cytochrome P450 1A2): 20 µM (inconclusive)
SMILES: CN1CCCC2(CCN(S(=O)(=O)c3ccccc3)CC2)C1

AC50 (Cytochrome P450 1A2): 22.4 µM (inconclusive)
SMILES: COc1c(F)c(F)c(C(=O)O)c(Nc2ccc(C)cc2)c1F
